In patent publication US20110071108A1, “Beta-Cyclodextrin Derivatives as Antibacterial Agents” (Pinnacle Pharmaceuticals, Inc., priority 2005, published 2011):

Legend:
Assay in all cases: Bacterial panel testing, MIC by broth microdilution
Assay type in all cases: cell-based
Settings in all cases: 20-24 hours growth
Enterococcus faecium = test system: Enterococcus faecium
Protocol: (§1) One to three colonies of bacteria were picked from an Mueller-Hinton or Brain Heart infusion agar plate (depending on the bacterial strain) and transferred to 3 ml Mueller-Hinton broth or Brain Heart infusion media (depending on the bacterial strain). Bacteria were allowed to grow for 2-4 hours in an incubator at 37° C. Bacteria-inoculated media were dispersed in 0.9% saline to match McFarland standard density. 100 μl standardized inoculation was added to 20 ml media (dilution 1). 10 μl of the new dilution was added to 990 μl media and mixed (dilution 2). 10 μl of dilution 2 was spread on an agar plate and allowed to grow overnight. Colonies were then […].
(§2) Test compound was diluted to 10 μg/ml in dimethylsulfoxide. Four μl of Rifampicin antibiotic was loaded into row H, column 2.
(§3) All wells were then filled with 100 μl of inoculated media (dilution 1 from Example 1). A further 100 μl of the inoculated media was then added to column 2 and the contents are pipetted to thoroughly mix the contents. A full 100 μl was then transferred from column 2 and mixed into column 3. This process was continued from left to right until columns 2-12 were serially diluted, and the final draw from column 12 was discarded. The plates were covered with 3M sealing tape (plates containing Enterococcus faecium were sealed with Air Pore sealing tape) and allowed to grow for 20-24 hours. Cytotoxic wells (clear wells) are then scored and the potency of the compound was determined.

Pseudomonas aeruginosa = test system: Pseudomonas aeruginosa
Protocol: as §1, §2, §3

Eschericia coli = test system: Eschericia coli
Protocol: as §1, §2, §3

Salmonella choleraesuis = test system: Salmonella choleraesuis
Protocol: as §1, §2, §3

SMILES | MIC EF (Enterococcus faecium) [mg/L] | MIC PA (Pseudomonas aeruginosa) [mg/L] | MIC EC (Eschericia coli) [mg/L] | MIC SC (Salmonella choleraesuis) [mg/L]
CC(C)(C)[Si](C)(C)OC1CNC(C(=O)NCC2OC3OC4C(CNC(=O)C5CC(O[Si](C)(C)C(C)(C)C)CN5)OC(OC5C(CNC(=O)C6CC(O[Si](C)(C)C(C)(C)C)CN6)OC(OC6C(CNC(=O)C7CC(O[Si](C)(C)C(C)(C)C)CN7)OC(OC7C(CNC(=O)C8CC(O[Si](C)(C)C(C)(C)C)CN8)OC(OC8C(CNC(=O)C9CC(O[Si](C)(C)C(C)(C)C)CN9)OC(OC9C(CNC(=O)C%10CC(O[Si](C)(C)C(C)(C)C)CN%10)OC(OC2C(O)C3O)C(O)C9O)C(O)C8O)C(O)C7O)C(O)C6O)C(O)C5O)C(O)C4O)C1.O=C(O)C(F)(F)F.O=C(O)C(F)(F)F.O=C(O)C(F)(F)F.O=C(O)C(F)(F)F.O=C(O)C(F)(F)F.O=C(O)C(F)(F)F.O=C(O)C(F)(F)F (stereo not drawn) | >200 | >200 |  | 
CCCCCCCCCCNC[C@H]1O[C@@H]2O[C@H]3[C@H](O)[C@@H](O)[C@@H](O[C@H]4[C@H](O)[C@@H](O)[C@@H](O[C@H]5[C@H](O)[C@@H](O)[C@@H](O[C@H]6[C@H](O)[C@@H](O)[C@@H](O[C@H]7[C@H](O)[C@@H](O)[C@@H](O[C@H]8[C@H](O)[C@@H](O)[C@@H](O[C@H]1[C@H](O)[C@H]2O)O[C@@H]8CNCCCCCCCCCC)O[C@@H]7CNCCCCCCCCCC)O[C@@H]6CNCCCCCCCCCC)O[C@@H]5CNCCCCCCCCCC)O[C@@H]4CNCCCCCCCCCC)O[C@@H]3CNCCCCCCCCCC |  | >200 | >200 | >200
Oc1cccnc1NCC1OC2OC3C(CNc4ncccc4O)OC(OC4C(CNc5ncccc5O)OC(OC5C(CNc6ncccc6O)OC(OC6C(CNc7ncccc7O)OC(OC7C(CNc8ncccc8O)OC(OC8C(CNc9ncccc9O)OC(OC1C(O)C2O)C(O)C8O)C(O)C7O)C(O)C6O)C(O)C5O)C(O)C4O)C(O)C3O (stereo not drawn) |  | >200 | >200 | >200
CCCCCCCCCCCC[N+]12CC[N+](CC3OC4OC5C(C[N+]67CC[N+](CCCCCCCCCCCC)(CC6)CC7)OC(OC6C(C[N+]78CC[N+](CCCCCCCCCCCC)(CC7)CC8)OC(OC7C(C[N+]89CC[N+](CCCCCCCCCCCC)(CC8)CC9)OC(OC8C(C[N+]9%10CC[N+](CCCCCCCCCCCC)(CC9)CC%10)OC(OC9C(C[N+]%10%11CC[N+](CCCCCCCCCCCC)(CC%10)CC%11)OC(OC%10C(C[N+]%11%12CC[N+](CCCCCCCCCCCC)(CC%11)CC%12)OC(OC3C(O)C4O)C(O)C%10O)C(O)C9O)C(O)C8O)C(O)C7O)C(O)C6O)C(O)C5O)(CC1)CC2.[Br-].[Br-].[Br-].[Br-].[Br-].[Br-].[Br-].[Br-].[Br-].[Br-].[Br-].[Br-].[Br-].[Br-] (stereo not drawn) |  | >200 | >200 | >200
CCCCCCCCCCCCCCCC[N+]12CC[N+](CC3OC4OC5C(C[N+]67CC[N+](CCCCCCCCCCCCCCCC)(CC6)CC7)OC(OC6C(C[N+]78CC[N+](CCCCCCCCCCCCCCCC)(CC7)CC8)OC(OC7C(C[N+]89CC[N+](CCCCCCCCCCCCCCCC)(CC8)CC9)OC(OC8C(C[N+]9%10CC[N+](CCCCCCCCCCCCCCCC)(CC9)CC%10)OC(OC9C(C[N+]%10%11CC[N+](CCCCCCCCCCCCCCCC)(CC%10)CC%11)OC(OC%10C(C[N+]%11%12CC[N+](CCCCCCCCCCCCCCCC)(CC%11)CC%12)OC(OC3C(O)C4O)C(O)C%10O)C(O)C9O)C(O)C8O)C(O)C7O)C(O)C6O)C(O)C5O)(CC1)CC2.[Br-].[Br-].[Br-].[Br-].[Br-].[Br-].[Br-].[Br-].[Br-].[Br-].[Br-].[Br-].[Br-].[Br-] (stereo not drawn) |  | >200 |  | 
OC1C2OC(CNc3cccc4ccccc34)C(OC3OC(CNc4cccc5ccccc45)C(OC4OC(CNc5cccc6ccccc56)C(OC5OC(CNc6cccc7ccccc67)C(OC6OC(CNc7cccc8ccccc78)C(OC7OC(CNc8cccc9ccccc89)C(OC8OC(CNc9cccc%10ccccc9%10)C(O2)C(O)C8O)C(O)C7O)C(O)C6O)C(O)C5O)C(O)C4O)C(O)C3O)C1O (stereo not drawn) |  | >200 | >200 | >200
OC1C2OC(CNc3ccccc3-c3ccccc3)C(OC3OC(CNc4ccccc4-c4ccccc4)C(OC4OC(CNc5ccccc5-c5ccccc5)C(OC5OC(CNc6ccccc6-c6ccccc6)C(OC6OC(CNc7ccccc7-c7ccccc7)C(OC7OC(CNc8ccccc8-c8ccccc8)C(OC8OC(CNc9ccccc9-c9ccccc9)C(O2)C(O)C8O)C(O)C7O)C(O)C6O)C(O)C5O)C(O)C4O)C(O)C3O)C1O (stereo not drawn) |  | >200 | >200 | >200
CCCCCCCCCC[N+]12CC[N+](CC(=O)NCC3OC4OC5C(CNC(=O)C[N+]67CC[N+](CCCCCCCCCC)(CC6)CC7)OC(OC6C(CNC(=O)C[N+]78CC[N+](CCCCCCCCCC)(CC7)CC8)OC(OC7C(CNC(=O)C[N+]89CC[N+](CCCCCCCCCC)(CC8)CC9)OC(OC8C(CNC(=O)C[N+]9%10CC[N+](CCCCCCCCCC)(CC9)CC%10)OC(OC9C(CNC(=O)C[N+]%10%11CC[N+](CCCCCCCCCC)(CC%10)CC%11)OC(OC%10C(CNC(=O)C[N+]%11%12CC[N+](CCCCCCCCCC)(CC%11)CC%12)OC(OC3C(O)C4O)C(O)C%10O)C(O)C9O)C(O)C8O)C(O)C7O)C(O)C6O)C(O)C5O)(CC1)CC2 (stereo not drawn) | >200 |  |  | 
OC1C2OC(CNCc3cccc4ccccc34)C(OC3OC(CNCc4cccc5ccccc45)C(OC4OC(CNCc5cccc6ccccc56)C(OC5OC(CNCc6cccc7ccccc67)C(OC6OC(CNCc7cccc8ccccc78)C(OC7OC(CNCc8cccc9ccccc89)C(OC8OC(CNCc9cccc%10ccccc9%10)C(O2)C(O)C8O)C(O)C7O)C(O)C6O)C(O)C5O)C(O)C4O)C(O)C3O)C1O (stereo not drawn) |  | >200 | >200 | >200
C[C@H](NCC1OC2OC3C(CN[C@@H](C)c4ccccc4)OC(OC4C(CN[C@@H](C)c5ccccc5)OC(OC5C(CN[C@@H](C)c6ccccc6)OC(OC6C(CN[C@@H](C)c7ccccc7)OC(OC7C(CN[C@@H](C)c8ccccc8)OC(OC8C(CN[C@@H](C)c9ccccc9)OC(OC1C(O)C2O)C(O)C8O)C(O)C7O)C(O)C6O)C(O)C5O)C(O)C4O)C(O)C3O)c1ccccc1 (stereo partly drawn) |  | >200 |  | >200
Cc1cccc(NCC2OC3OC4C(CNc5cccc(C)c5)OC(OC5C(CNc6cccc(C)c6)OC(OC6C(CNc7cccc(C)c7)OC(OC7C(CNc8cccc(C)c8)OC(OC8C(CNc9cccc(C)c9)OC(OC9C(CNc%10cccc(C)c%10)OC(OC2C(O)C3O)C(O)C9O)C(O)C8O)C(O)C7O)C(O)C6O)C(O)C5O)C(O)C4O)c1 (stereo not drawn) |  | >200 | >200 | >200
Cc1ccccc1NCC1OC2OC3C(CNc4ccccc4C)OC(OC4C(CNc5ccccc5C)OC(OC5C(CNc6ccccc6C)OC(OC6C(CNc7ccccc7C)OC(OC7C(CNc8ccccc8C)OC(OC8C(CNc9ccccc9C)OC(OC1C(O)C2O)C(O)C8O)C(O)C7O)C(O)C6O)C(O)C5O)C(O)C4O)C(O)C3O (stereo not drawn) |  | >200 | >200 | >200
COc1cccc(CCNCC2OC3OC4C(CNCCc5cccc(OC)c5)OC(OC5C(CNCCc6cccc(OC)c6)OC(OC6C(CNCCc7cccc(OC)c7)OC(OC7C(CNCCc8cccc(OC)c8)OC(OC8C(CNCCc9cccc(OC)c9)OC(OC9C(CNCCc%10cccc(OC)c%10)OC(OC2C(O)C3O)C(O)C9O)C(O)C8O)C(O)C7O)C(O)C6O)C(O)C5O)C(O)C4O)c1 (stereo not drawn) |  | >200 |  | 
CC(C)CCCCC(C)NCC1OC2OC3C(CNC(C)CCCCC(C)C)OC(OC4C(CNC(C)CCCCC(C)C)OC(OC5C(CNC(C)CCCCC(C)C)OC(OC6C(CNC(C)CCCCC(C)C)OC(OC7C(CNC(C)CCCCC(C)C)OC(OC8C(CNC(C)CCCCC(C)C)OC(OC1C(O)C2O)C(O)C8O)C(O)C7O)C(O)C6O)C(O)C5O)C(O)C4O)C(O)C3O (stereo not drawn) |  | >200 |  | 
OC1C2OC(CNCCC3=CCCCC3)C(OC3OC(CNCCC4=CCCCC4)C(OC4OC(CNCCC5=CCCCC5)C(OC5OC(CNCCC6=CCCCC6)C(OC6OC(CNCCC7=CCCCC7)C(OC7OC(CNCCC8=CCCCC8)C(OC8OC(CNCCC9=CCCCC9)C(O2)C(O)C8O)C(O)C7O)C(O)C6O)C(O)C5O)C(O)C4O)C(O)C3O)C1O (stereo not drawn) |  | >200 |  | 
OC1C2OC(CNCc3ccc(Cl)cc3)C(OC3OC(CNCc4ccc(Cl)cc4)C(OC4OC(CNCc5ccc(Cl)cc5)C(OC5OC(CNCc6ccc(Cl)cc6)C(OC6OC(CNCc7ccc(Cl)cc7)C(OC7OC(CNCc8ccc(Cl)cc8)C(OC8OC(CNCc9ccc(Cl)cc9)C(O2)C(O)C8O)C(O)C7O)C(O)C6O)C(O)C5O)C(O)C4O)C(O)C3O)C1O (stereo not drawn) |  | >200 |  | >200
Cc1cc(NCC2OC3OC4C(CNc5ccc(C(C)C)c(C)c5)OC(OC5C(CNc6ccc(C(C)C)c(C)c6)OC(OC6C(CNc7ccc(C(C)C)c(C)c7)OC(OC7C(CNc8ccc(C(C)C)c(C)c8)OC(OC8C(CNc9ccc(C(C)C)c(C)c9)OC(OC9C(CNc%10ccc(C(C)C)c(C)c%10)OC(OC2C(O)C3O)C(O)C9O)C(O)C8O)C(O)C7O)C(O)C6O)C(O)C5O)C(O)C4O)ccc1C(C)C (stereo not drawn) |  | >200 | >200 | >200
OC1C2OC(CNCc3ccc(Br)cc3)C(OC3OC(CNCc4ccc(Br)cc4)C(OC4OC(CNCc5ccc(Br)cc5)C(OC5OC(CNCc6ccc(Br)cc6)C(OC6OC(CNCc7ccc(Br)cc7)C(OC7OC(CNCc8ccc(Br)cc8)C(OC8OC(CNCc9ccc(Br)cc9)C(O2)C(O)C8O)C(O)C7O)C(O)C6O)C(O)C5O)C(O)C4O)C(O)C3O)C1O (stereo not drawn) |  |  | >200 | 
